Assay results from patent US10670576B2, “Device and method for measuring impedance in organotypic tissues” (Universität Leipzig, priority 2008, dated 2020).

System: hippocampal slice cultures
Assay: Impedance measurement (TIECIR) of organotypic hippocampal slice cultures after induction of tau-hyperphosphorylation
Format: cell-based
Settings: 1 μM, hippocampal slices of 8-9 day old rats, 7 days in culture, 100 Hz to 1 MHz, 10 mV, stable for 9 hours before application, remained small within the next seven hours
Experimental: The impedance changes caused by tau-hyperphosphorylation (FIG. 11) of hippocampal slices that were prepared from 8-9 day old rats were measured using the device according to the present invention. Six to eight hippocampal slices of 400 μm thickness were places on a aluminiumoxyd membrane (0.02 μm pore size) of a 6-well recording chamber and cultured for 7 days in 50% minimum essential media, 25% Hank's media, and 25% horse serum supplemented with L-glutamine and antibiotics. Impedance recording was performed by using a Agilent 4294A impedance analyser (Agilent Technologies Deutschland GmbH, Germany) in combination with a multiplexer (NI-SCXI-1153, National Instruments, USA).
24 hours before impedance measurement was carried out, medium replaced by fresh culture medium. The impedance was recorded in a frequency range of 100 Hz to 1 MHz by applying a voltage of 10 mV across a large top electrode and 60 substrate integrated bottom electrodes of 30 μm in diameter.
For measuring hippocampal slice cultures, the TIECIR method was used. Organotypic slice cultures were transiently covered with medium during impedance measurement, which usually takes less than 30 seconds for a single bottom electrode. […]

C=C1[C@@H](O)[C@@H]2O[C@]3(CC[C@H](/C=C/[C@@H](C)[C@@H]4CC(C)=C[C@@]5(O[C@H](C[C@@](C)(O)C(=O)O)CC[C@H]5O)O4)O3)CC[C@H]2O[C@@H]1[C@@H](O)C[C@H](C)[C@H]1O[C@@]2(CCCCO2)CC[C@H]1C [ocadaic acid]
normalized impedance (normalized against non-covered membrane): 10%
